Consider seven molecules from patent US10005815B2, “Biologically cleavable tetrapeptide linking agents” (Arrowhead Madison Inc., priority 2015, dated 2018).

The subject of one data set is rat liver S9 extract. Put plainly: Digestion with rat liver S9 extract. The data set is classed as biochemical. As to conditions: normalized to compound 23. The protocol: (§1) Proteolytic digestion experiments were carried out at a fixed substrate concentration (0.51 μmol) using liver lysosomal (enzyme) extract (0.45 μg/μL) in a 25 mM MES solution buffered to pH 5 containing 1% CHAPS and 1.8 mM DTT incubated at 37° C. Enzyme extract was activated in the presence of DTT for 15 minutes at 37° C. prior to addition of AENA labeled peptide substrates. At various time points, up to 26 h, 20 μL aliquots were removed and acidified to a pH of 3 with TFA. Analysis of fractions was performed using HPLC with a Aquasil C18 reverse-phase column (250×4.6, Thermofisher, Waltham, Mass.), monitored at 390 nm and 335 nm for AENA and EDANS respectively. Elution was performed with a gradient of acetonitrile and water buffered with 0.1% formic acid. Generation of unmodified reporter molecule was measured. To minimize freeze thaw cycles the lysosomal extract was dispensed into multiple aliquots prior to storage at −80° C. A new aliquot was employed for each study and used immediately upon thawing. Lysosomal extract was sourced from female Hans Wistar rats by differential density gradient centrifugation (Graham et al. 2000). Protein concentration of lysosomal extract was determined by standard BCA protein assay protocols. Compound 60 was used for normalization of velocity between experiments (Tables 2-4). […] Normalized sample velocity was calculated as: [(average compound 60 velocity[…]experimental compound 60 velocity)]×sample experimental velocity.
(§2) The observed rates of cleavage were not dependent on the source of proteolytic enzymes. The order of increasing velocity (23>30>37>42) was maintained when digested using commercially available rat and human liver S9 extract (Xenotech LLC, Lenexa, Kans.) (Table 5). Thus rates of cleavage are expected to be similar across different species and cell types.

The next data set deals with human liver S9 extract. Put plainly: Digestion with human liver S9 extract. It counts as biochemical. The note with it: normalized to compound 23. The procedure: as §1, §2
Data set [1] has as its system liver lysosomal (enzyme) extract. Put plainly: Digestion assay with rat liver lysosomal extract. The data set is classed as biochemical. As to conditions: for Sample Velocity / Normalized Velocity: AENA substrates; for Sample Velocity: linear rate of reporter generation at <50% completion, pH 5, 37° C.; for Normalized Velocity: normalized with compound 60 velocity (average 123.8 nmol/h); for Relative Velocity, Lysosomal Extract: normalized to compound 23. The procedure:
Various amino acid combinations, tetrapeptides, were used to link various first moieties (R^5) and an AENA report group second compound (R^6) to form assay substrates (substrates). Cleavage rate of the peptides were evaluated by analysis of digestion of the substrates in the presence of rat lysosomal extract.
Reporting groups were coupled to the C-terminus of the peptide substrates as described above for UV-vis monitoring to explore the influence of amino acid sequence on kinetics of peptide degradation by HPLC. N-(2-aminoethyl)-4-nitroaniline (AENA) or N-(aminoethyl)-5-napthylamine-1-sulfonic acid (EDANS) were used as reporting groups for HPLC monitoring as neither absorptivity nor lambda maximum were affected for either after cleavage from the peptide. The N-terminus of each peptide substrate was modified with either methoxy polyethylene glycol (PEG12) or N-acetyl galactosamine (NAG(OR)3) (FIG. 1).
Proteolytic digestion experiments were carried out at a fixed substrate concentration (0.51 μmol) using liver lysosomal (enzyme) extract (0.45 μg/μL) in a 25 mM MES solution buffered to pH 5 containing 1% CHAPS and 1.8 mM DTT incubated at 37° C. Enzyme extract was activated in the presence of DTT for 15 minutes at 37° C. prior to addition of AENA labeled peptide substrates. At various time points, up to 26 h, 20 μL aliquots were removed and acidified to a pH of 3 with TFA. Analysis of fractions was performed using HPLC with a Aquasil C18 reverse-phase column (250×4.6, Thermofisher, Waltham, Mass.), monitored at 390 nm and 335 nm for AENA and EDANS respectively. Elution was performed with a gradient of acetonitrile and water buffered with 0.1% formic acid. Generation of unmodified reporter molecule was measured. To minimize freeze thaw cycles the lysosomal extract was dispensed into multiple aliquots prior to storage at −80° C. A new aliquot was employed for each study and used immediately upon thawing. Lysosomal extract was sourced from female Hans Wistar rats by differential density gradient centrifugation (Graham et al. 2000). Protein concentration of lysosomal extract was determined by standard BCA protein assay protocols. […]
Rate (also called velocity of degradation or velocity) was extrapolated during early linear turnover (Table 2). As used herein, rate is defined as the linear rate of reporting group generation at less than 50% completion (digestion rate was assumed to be linear at less than 50% completion). For substrates in which cleavage deviated from consecutive first order kinetics, the percent of reporting group liberated at the endpoint of digestion was used as a metric for comparison.
In general terms: A reporter such as luciferase makes a cellular process visible.

A further data set deals with Factor VII. Put plainly: Serum Factor VII activity after DPC-mediated siRNA delivery in mice. It counts as in vivo. The note with it: for effectiveness as modifying agent in DPC-mediated siRNA delivery: Factor VII knockdown; for Relative F VII activity: polymer-siRNA conjugate modified with the PEG-peptide agent and CDM-NAG, 1 mg/kg polymer, 0.25 mg/kg siRNA, day 5. The procedure:
PEG tetrapeptide modifying agents were synthesized by using a PEG group at R^5 and an activated ester at R^7 (formula V). Membrane active polyamines (see below) were modified with Factor VII siRNA, CDM-NAG and the indicated tetrapeptide (45b, 46) or tripeptide control (47) modifying agents as previously described (U.S. Pat. Nos. 8,137,695 and 8,426,554) to form a dynamic polyconjugate delivery polymer. 1 mg/kg polymer conjugated to 0.25 mg/kg siRNA was then injected into mice. At day 5, samples were collected and assayed for Factor VII. Knockdown of Factor VII requires cleavage of the modifying agent from the polyamine at a rate similar to the previously described CDM masking agents and dipeptide-PABC masking agents. […] For dynamic polyconjugate delivery polymers modified with PEG12 functionalized tetrapeptides, the order of increasing knockdown in vivo (45b>46>47) correlated with in vitro kinetic results. Validation of the in vitro model for kinetic evaluation was shown by the results obtained in animal studies.
Polyacrylate EAB in 5 mM pH 8.0 HEPES buffer was modified 1.5 wt % with a N-hydroxysuccinimidyl activated PEG4 azide (Azido-dPEG4-NHS ester from Quanta Biodesign) to provide azide groups for subsequent attachment of siRNA. The azide-modified polymer was then diluted to 5 mg/mL in 60 mg/mL HEPES base. To this solution was added 15 mg/mL (3 wt equivalents) of the indicated protease-cleavable PEG modifying reagents (the described herein tetrapeptide agents or PEG12-FCit-PABC-PNP (8426554) to modify 40-50% of available amine groups. After 1 h, DBCO-modified rodent factor VII siRNA (0.25 wt eq relative to polymer) was added to polymer solution. After incubation overnight, conjugates were further modified by addition of molar excess relative to available amine groups of an N-acetylgalactosamine derivative CDM-NAG, NAG-A^4-A^3-A^2-A^1-NHS or NAG-ACit-PABC-PNP (U.S. Pat. No. 8,426,554, Rozema et al. 2015, Carlson et al. 2015), and incubated for 30 min to reversibly modify remaining polymer EAB amines.
Male Wistar Han rats and female ICR mice, 6 to 8 weeks old, were obtained from Harlan Sprague-Dawley, (Indianapolis, Ind.). Animals were handled in accordance with animal used protocols approved by the Animal Care and Use Committee at Arrowhead Madison Inc. Rodents were maintained on a 12 hours light/dark cycle with free access to water and food (Harlan Teklad Rodent Diet, Harlan, Madison, Wis.). Animals were injected with 1 mg/kg polymer conjugated to 0.25 mg/kg siRNA. Samples were collected 5 days post injection.
FVII activity in serum was measured with a chromogenic method using a test kit (BIOPHEN VII, Aniara, Mason, Ohio) following manufacturer's recommendations. Absorbance of colorimetric development was measured using a Tecan Safire-2 microplate reader at 405 nm.

Non-standard residues stand in square brackets, D forms with d. Residues, ends and D or L forms follow the SMILES beside them. *: point of attachment. CH3O(CH2CH2O)11CH2CH2CO = COCCOCCOCCOCCOCCOCCOCCOCCOCCOCCOCCOCCC(=O)*; X1 = O=[N+]([O-])c1ccc(NCCN*)cc1; Cit = NC(=O)NCCC[C@H](N)C(=O)O

As to `COCCOCCOCCOCCOCCOCCOCCOCCOCCOCCOCCOCCC(=O)N[C@@H](Cc1ccccc1)C(=O)N[C@@H](CCCNC(N)=O)C(=O)N[C@@H](Cc1ccccc1)C(=O)N1CCC[C@H]1C(=O)NCCNc1ccc([N+](=O)[O-])cc1` [Compound 23, PEG12-FCitFP-AENA] ({CH3O(CH2CH2O)11CH2CH2CO}-F[Cit]FP-X1), in the data set with rat liver S9 extract, the “Relative Velocity, RAT S9 Extract” value worked out at 100.0. Moreover, the “Relative Velocity, HUMAN S9 Extract” value in the data set with human liver S9 extract came out at 100.0.
Consider `COCCOCCOCCOCCOCCOCCOCCOCCOCCOCCOCCOCCC(=O)N[C@@H](CCCNC(N)=O)C(=O)N[C@@H](C)C(=O)N1CCC[C@H]1C(=O)NCCNc1ccc([N+](=O)[O-])cc1` [Compound 42, PEG12-CitAP-AENA], for which, in the data set with rat liver S9 extract, the “Relative Velocity, RAT S9 Extract” value was found to be 0.6. The “Relative Velocity, HUMAN S9 Extract” value in the data set with human liver S9 extract came to 1.7.
NAG(OAc)3-ACitAP- AENA [Compound 37]: in data set [1], the “Sample Velocity” value worked out at 11.8 nmol/h; the “Normalized Velocity” value is 13.5 nmol/h; the “% Released at Endpoint (21 hr)” value was found to be 44.2%; the “Relative Velocity, Lysosomal Extract” value worked out at 7.0. Also, the “Relative Velocity, RAT S9 Extract” value with rat liver S9 extract is 3.3. Moreover, the “Relative Velocity, HUMAN S9 Extract” value in the data set with human liver S9 extract is reported as 7.1.
Consider NAG(OAc)3-FCitAP- AENA [Compound 30], for which, in data set [1], the “Sample Velocity” value is 54.3 nmol/h; the “Normalized Velocity” value came out at 62.0 nmol/h; the “% Released at Endpoint (21 hr)” value was found to be 96.5%; the “Relative Velocity, Lysosomal Extract” value is given as 32.1. Also, the “Relative Velocity, RAT S9 Extract” value with rat liver S9 extract turned out to be 28.3. In addition, the “Relative Velocity, HUMAN S9 Extract” value with human liver S9 extract stood at 45.7.
With PEG-ACitAP-OSu [Compound 46], in the data set on Factor VII, the “effectiveness as modifying agent in DPC-mediated siRNA delivery” value was “effective modifying agents” and the “Relative F VII activity” value is 66 ± 28.
On to PEG-CitAP-OSu [Compound 47], for which the “Relative F VII activity” value with Factor VII is on record as 97 ± 34.
For the molecule PEG-FCitAP-OSu [Compound 45b], in the data set with Factor VII, the “effectiveness as modifying agent in DPC-mediated siRNA delivery” value is listed as “effective modifying agents” and the “Relative F VII activity” value was 40 ± 06.
